Read-outs that look alike come from different tables or passages of the source.
Key:
[1] = set-up: method as in earlier work; details: cited from earlier work
[2] = Antibiotic concentrations in porcine oral fluid after intramuscular application (UHPLC-MS/MS); type: in vivo; details: pigs, i.m.; for concentration in oral fluid at withdrawal period: at the end of the withdrawal period for tissues of each drug (Table 3); for distribution to oral fluid: conclusion in words
Protocol: All animals were born in the sow farm (8000 DanBred sows) located in Northern Poland, after crossing ♀(♂Landrace × ♀Yorskshire) × ♂Duroc. Piglets were weaned after 4 weeks of lactation with an average weight of 6 kg and then moved to the weaner stable (23,000 weaners). After the next 7 weeks, animals were transported to the 9000-places fattening farm with an average body weight of 28 kg, where the trial was performed. All farms in the aforementioned three-phase model used weekly batches and an all-in all-out system. Specialist veterinary and production management care were provided in each location.
For the purpose of the study, 240 immunologically castrated boars were divided into 8 groups, 30 animals in each pen. For the control group, 30 pigs were used in separate pens. Their initial body weight was between 40 and 60 kg. Pigs were housed at 20–25 °C. Fatteners were fed ad libitum with antimicrobial-free water and feed provided by feeders throughout the study. Before the experiment, water and feed were checked for antimicrobials, and no antimicrobial treatments were administered to these pigs before. All animals in one pen were treated due to the same health issue using disposable needles and the same drug and dosage. Pens were separated from each other with concrete walls. The drugs and dosage administered to each experimental group with an indication of withdrawal period for tissues are listed in Table 3. The oral fluid samples were collected using three cotton ropes (70 cm length with 1 cm diameter) in each pen suspended separately for 25 min on the front wall of the pen with bottoms at the pigs’ shoulder height, away from water and feed.
The research material was one pooled sample of oral fluid from 10 pigs, in triplicate, per pen. Ropes were removed immediately after collection. The first oral fluid sample was collected 24 h after the first injection. The collection of each subsequent sample took place at the same time (11:30 A.M.) for 35 consecutive days. Additionally, oral fluid samples were collected from pigs not treated with any antibiotics. Oral fluid from each pen was pooled into one 50-mL Falcon plastic tube and centrifuged at 9447× rcf for 15 min. Centrifuged material was transferred to a 15 mL plastic tube and frozen at −20 °C until analysis.
Before the analysis, the oral fluid samples were centrifuged at 9447× rcf. Next, an aliquot (1 mL) of oral fluid was placed into a 2 mL polypropylene centrifuge tube, and the 30 µL of the internal standard at the concentration of 2 µg/mL was added. For the extraction of analysed antibiotics, 600 µL of 0.5% formic acid was added, vortexed for 30 s and centrifuged for 10 min at 9447× rcf. Then, the supernatant was filtered through a […] PVDF filter into an amber glass vial before chromatographic analysis.
The mass spectrometry detection was operated in the positive ESI mode with multiple reaction monitoring (MRM).

[3] = cited from earlier work
[4] = set-up: method as in PMID 14651045, PMID 14651045; details: cited from earlier work
[5] = male, (Landrace × Yorkshire) × Duroc crossbred (DanBred sows), pig, intramuscular, oral fluid, time 1 d (24 h after first injection), treatment period, read-out: Avarage Concentrations in oral fluid
[6] = male, (Landrace × Yorkshire) × Duroc crossbred (DanBred sows), pig, intramuscular, oral fluid, treatment period, read-out: Avarage Concentrations in oral fluid
[7] = male, (Landrace × Yorkshire) × Duroc crossbred (DanBred sows), pig, intramuscular, oral fluid, time 4 d, posttreatment, read-out: Avarage Concentrations in oral fluid
[8] = male, (Landrace × Yorkshire) × Duroc crossbred (DanBred sows), pig, intramuscular, oral fluid, posttreatment, read-out: Avarage Concentrations in oral fluid
[9] = oral fluid, time 30 d, posttreatment

SMILES	concentration at 1 d [2, 5]	concentration at 2 d [2, 6]	concentration at 3 d [2, 6]	concentration at 4 d [2, 7]	concentration at 5 d [2, 8]	concentration at 6 d [2, 8]	concentration at 7 d [2, 8]	concentration at 8 d [2, 8]	concentration at 9 d [2, 8]	concentration at 10 d [2, 8]	concentration at 11 d [2, 8]	concentration at 12 d [2, 8]	concentration at 13 d [2, 8]	concentration at 14 d [2, 8]	concentration at 15 d [2, 8]	concentration at 16 d [2, 8]	concentration at 17 d [2, 8]	concentration at 18 d [2, 8]	concentration at 19 d [2, 8]	concentration at 20 d [2, 8]	also measured
CCC[C@@H]1C[C@@H](C(=O)N[C@@H]([C@H]2O[C@H](SC)[C@H](O)[C@@H](O)[C@H]2O)[C@@H](C)O)N(C)C1 [LIN, lincomycin]	10.5 µg/mL	2.96 ± 0.446 µg/mL	4.25 ± 0.559 µg/mL	1.55 µg/mL	1.67 ± 0.199 µg/mL	1.79 ± 0.203 µg/mL	1.48 ± 0.186 µg/mL	0.437 ± 0.101 µg/mL	0.457 ± 0.096 µg/mL	0.42 ± 0.083 µg/mL	0.194 ± 0.055 µg/mL	0.257 ± 0.076 µg/mL	0.131 ± 0.041 µg/mL	0.125 ± 0.033 µg/mL	0.277 ± 0.061 µg/mL	0.337 ± 0.069 µg/mL	0.128 ± 0.028 µg/mL	0.302 ± 0.051 µg/mL	0.279 ± 0.044 µg/mL	0.376 ± 0.052 µg/mL	apparent volume of distribution [1]: > 1 L/kg; concentration at 1 d ([2]; male, (Landrace × Yorkshire) × Duroc crossbred (DanBred sows), pig, intramuscular, oral fluid, first day of medication (abstract), read-out: concentration in oral fluid on the first day of medication): 10500 ng/g; concentration at 21 d [2, 8]: 0.252 ± 0.039 µg/mL; concentration at 22 d [2, 8]: 0.142 ± 0.024 µg/mL; concentration at 23 d [2, 8]: 0.298 ± 0.033 µg/mL; concentration at 24 d [2, 8]: 0.326 ± 0.047 µg/mL; concentration at 25 d [2, 8]: 0.18 ± 0.044 µg/mL; concentration at 26 d [2, 8]: 0.16 ± 0.036 µg/mL; concentration at 27 d [2, 8]: 0.205 ± 0.043 µg/mL; concentration at 28 d ([2]; male, (Landrace × Yorkshire) × Duroc crossbred (DanBred sows), pig, intramuscular, oral fluid, time 28 d, posttreatment, read-out: Avarage Concentrations in oral fluid): 0.103 ± 0.026 µg/mL; concentration at 29 d ([2]; male, (Landrace × Yorkshire) × Duroc crossbred (DanBred sows), pig, intramuscular, oral fluid, time 29 d, posttreatment, read-out: Avarage Concentrations in oral fluid): 0.0856 ± 0.016 µg/mL; concentration at 30 d ([2]; male, (Landrace × Yorkshire) × Duroc crossbred (DanBred sows), pig, intramuscular, oral fluid, time 30 d, posttreatment, read-out: Avarage Concentrations in oral fluid): 0.0581 µg/mL; concentration in oral fluid at withdrawal period ([2]; oral fluid): 0.437 µg/mL; Avarage Concentrations in oral fluid ([2]; oral fluid, time 1 d (24 h after first injection), treatment period): 10,500 ± 1889 µg/L; Avarage Concentrations in oral fluid ([2]; oral fluid, time 4 d, posttreatment): 1550 ± 211 µg/L; Avarage Concentrations in oral fluid [2, 9]: 58.1 ± 12 µg/L; distribution to oral fluid [2]: high distribution; pKa [3]: about 7.6
CC[C@H]1OC(=O)C[C@@H](O)[C@H](C)[C@@H](O[C@@H]2O[C@H](C)[C@@H](O[C@H]3C[C@@](C)(O)[C@@H](O)[C@H](C)O3)[C@H](N(C)C)[C@H]2O)[C@@H](CC=O)C[C@@H](C)C(=O)/C=C/C(C)=C/[C@@H]1CO[C@@H]1O[C@H](C)[C@@H](O)[C@@H](OC)[C@H]1OC [TYL, tylosin]	0.396 ± 0.068 µg/mL	0.958 ± 0.166 µg/mL	0.832 ± 0.142 µg/mL	0.654 ± 0.111 µg/mL	0.538 ± 0.096 µg/mL	0.475 ± 0.089 µg/mL	0.175 ± 0.054 µg/mL	0.118 ± 0.041 µg/mL	0.158 ± 0.062 µg/mL	0.0493 ± 0.013 µg/mL	0.0544 ± 0.016 µg/mL	0.14 ± 0.036 µg/mL	0.0323 ± 0.011 µg/mL	0.0306 ± 0.0084 µg/mL	0.0192 ± 0.0052 µg/mL	0.0528 ± 0.033 µg/mL	0.0319 ± 0.01 µg/mL	0.0139 ± 0.0036 µg/mL	0.0161 ± 0.0046 µg/mL	0.0254 ± 0.0077 µg/mL	concentration at 1 d ([2]; male, (Landrace × Yorkshire) × Duroc crossbred (DanBred sows), pig, intramuscular, 5 mg/kg, oral fluid, time 1 d (24 h after first injection), treatment period, read-out: Avarage Concentrations in oral fluid): 0.396 µg/mL; concentration at 21 d [2, 8]: 0.0092 ± 0.0021 µg/mL; concentration at 22 d [2, 8]: 0.0055 ± 0.0011 µg/mL; concentration at 23 d [2, 8]: 0.0054 ± 0.0008 µg/mL; concentration at 24 d [2, 8]: 0.0066 ± 0.0009 µg/mL; concentration at 25 d [2, 8]: 0.005 ± 0.0013 µg/mL; concentration at 26 d [2, 8]: 0.003 ± 0.0005 µg/mL; concentration at 27 d [2, 8]: 0.0068 ± 0.0017 µg/mL; concentration in oral fluid at withdrawal period ([2]; oral fluid): 0.0066 µg/mL; day of peak concentration in oral fluid ([2]; oral fluid, day of drug administration): second day; time for which the analyte was present / quantified in oral fluid ([2]; oral fluid, sampling for 30 days): 27 days; Avarage Concentrations in oral fluid ([2]; oral fluid, time 28 d, posttreatment): <LOQ; Avarage Concentrations in oral fluid ([2]; oral fluid, time 29 d, posttreatment): <LOQ; Avarage Concentrations in oral fluid [2, 9]: <LOQ; distribution to oral fluid [2]: high distribution; binding degree to plasma proteins [4]: < 50%; pKa [3]: 7.1
